± gives the expanded uncertainty stated by the source.
Columns and labels:
[1] = Crystal; DTA
[2] = Molar enthalpy of transition or fusion; details: Crystal; DSC

With `O=C1OC[C@H]2[C@@H]1N(Cc1ccccc1)C(=O)N2Cc1ccccc1` the Normal melting temperature [1] was 118.70 ± 1.1 °C and the “Molar enthalpy of transition or fusion” value [2] was 7.24 ± 0.454 kcal/mol.

From the NIST ThermoML archive (doi:10.1021/acs.jced.5b00857)
